The target of test [1] is T1, GPR40 (Homo sapiens, UniProt O14842). Kind of test: Cell-based aequorin assay (CHO cells stably expressing GPR40 and aequorin). Further details: expressed in transfected cells; host or cells: CHO cells stably transfected with GPR40 and aequorin. To be noted: activation of human GPR40, CHO cells, 0.01% HSA. In a few lines:
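CHO cells stably co-expressing GPR40 and aequorin, loaded with coelenterazine (1 ug/mL, 2 h, room temperature) in H/HBSS with 20 mM Hepes and 0.01% fatty acid-free HSA. Serially diluted compounds added; luminescence recorded over 20 s. EC50 from dose-response of maximum relative light units.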

The target of test [2] is T1, GPR40. Kind of test: Inositol phosphate accumulation assay (A9_GPR40 cells). Type of test: cell-based. The arrangement: expressed in transfected cells; host or cells: CHO cells stably transfected with GPR40 and aequorin. As to conditions: inositol phosphate assay, A9_GPR40 cells, 1 hour; read-out: IP3 EC50. Summed up:
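[^3H] inositol phosphate accumulation was measured by SPA after 1 h compound exposure at 37° C in HBSS/10 mM LiCl containing HSA, ending with a 20 mM formic acid quench. The GPR40-transfected A9 cells had first been labelled overnight (16 h) with 1 μCi/mL ^3H-inositol.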

For test [3], the system named is fetal rat intestinal cells isolated from E19 rat embryos. Kind of test: GLP-1 secretion into culture medium from fetal rat intestinal cells. To be noted: FIG. 5-7; cultured cells treated with serial dilutions of compound. The test is classed as cell-based. The procedure: FIG. 5 is a graph showing the concentration of GLP-1 secreted into culture medium as a function of the amount of Example compounds 14 and 69.8. The GLP-1 was secreted from fetal rat intestinal cells isolated from E19 rat embryos. The cultured cells were treated with serial dilutions of the indicated compounds, and GLP-1 secreted into the culture medium was determined.
FIG. 6 is a graph showing the concentration of GLP-1 secreted into culture medium as a function of the amount of Example compound 66.6. The GLP-1 was secreted from fetal rat intestinal cells isolated from E19 rat embryos. The cultured cells were treated with serial dilutions of the indicated compound, and GLP-1 secreted into the culture medium was determined.
FIG. 7 is a graph showing the concentration of GLP-1 secreted into culture medium as a function of the amount of Example compounds 14, 66.17, 77.3, and 83.1. The GLP-1 was secreted from fetal rat intestinal cells isolated from E19 rat embryos. The cultured cells were treated with serial dilutions of the indicated compounds, and GLP-1 secreted into the culture medium was determined.

By EC50 is commonly meant the concentration needed to bring the measured effect to its halfway point.

T1 sequence (O14842 whole entry): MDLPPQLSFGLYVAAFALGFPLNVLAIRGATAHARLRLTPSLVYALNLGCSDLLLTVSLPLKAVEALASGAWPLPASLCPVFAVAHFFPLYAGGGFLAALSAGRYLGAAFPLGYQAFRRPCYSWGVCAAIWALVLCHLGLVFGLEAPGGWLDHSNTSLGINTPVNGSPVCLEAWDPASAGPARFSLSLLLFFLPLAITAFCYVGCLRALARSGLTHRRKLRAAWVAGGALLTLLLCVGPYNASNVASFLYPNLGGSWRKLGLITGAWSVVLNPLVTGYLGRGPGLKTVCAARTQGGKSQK

Regarding `COc1ccc(F)c(-c2ccc(COc3cccc(C(CC(=O)O)C4CC4)c3)cc2C2CCCC2(C)C)c1` (single isomer, unassigned) [Example 66.6], the EC50 at GPR40 [1] was 10 to 100 nM; on GPR40 [2], less than 10 nM. Further, the “concentration of GLP-1 secreted into culture medium” value (shortened to “concentration”) in test [3] was “significantly stimulated GLP-1 secretion”.

For the molecule `COc1ccc(F)c(-c2ccc(COc3cccc([C@@H](CC(=O)O)C4CC4)c3)cc2CC(C)(C)C)c1` (single isomer, unassigned) [Example 66.17, (3S)-3-Cyclopropyl-3-(3-(((2-(2,2-dimethylpropyl)-2′-fluoro-5′-(methyloxy)-1,1′-biphenyl-4-yl)methyl)oxy)phenyl)propanoic acid or (3R)-3-cyclopropyl-3-(3-(((2-(2,2-dimethylpropyl)-2′-fluoro-5′-(methyloxy)-1,1′-biphenyl-4-yl)methyl)oxy)phenyl)propanoic acid], the 50% effective concentration (EC50) at GPR40 [1] was 10 to 100 nM; at GPR40 [2], less than 10 nM. Moreover, the “concentration” value in test [3] is recorded as “significantly stimulated GLP-1 secretion”.

As to `COc1ccc(F)c(-c2ccc(COc3cccc([C@@H](CC(=O)O)CC4CC4)c3)cc2[C@H]2CCCC2(C)C)c1` (single isomer, unassigned) [Example 69.8], the values for the EC50 at GPR40 [1] and on GPR40 [2] were 10 to 100 nM and less than 10 nM, respectively. Also, the “concentration” value in test [3] was “significantly stimulated GLP-1 secretion”.

On to `CCC(CC(=O)O)c1cccc(OCc2ccc(-c3cc(OC)ccc3F)c(C3CCCC3(C)C)c2)c1F` (single isomer, unassigned) [Example 77.3], for which the values for the EC50 at GPR40 [1] and at GPR40 [2] were 100 to 1000 nM and less than 10 nM, respectively. In addition, in test [3], the “concentration” value is listed as “significantly stimulated GLP-1 secretion”.

On to `CCC(CC(=O)O)c1cc(F)cc(OCc2ccc(-c3cc(OC)ncc3F)c(C3CCCC3(C)C)c2)c1F` (single isomer, unassigned) [Example 90.3], for which the EC50 on GPR40 [1] is 100 to 1000 nM; on GPR40 [2] it was less than 10 nM.

In the case of `CCC(CC(=O)O)c1cc(OCc2ccc(-c3cc(OC)ccc3F)c(C3=CCCC3(C)C)c2)cc(C(F)(F)F)c1` (single isomer, unassigned) [Example 91, (3R)-3-(3-(((2-(5,5-Dimethyl-1-cyclopenten-1-yl)-2′-fluoro-5′-(methyloxy)-1,1′-biphenyl-4-yl)methyl)oxy)-5-(trifluoromethyl)phenyl)pentanoic acid or (3S)-3-(3-(((2-(5,5-dimethyl-1-cyclopenten-1-yl)-2′-fluoro-5′-(methyloxy)-1,1′-biphenyl-4-yl)methyl)oxy)-5-(trifluoromethyl)phenyl)pentanoic acid], the EC50 on GPR40 [1] was in the range of 100 to 1000 nM; at GPR40 [2] it was 10 to 100 nM.

As to `COc1ccc(F)c(-c2ccc(COc3cccc([C@@H](CC(=O)O)[C@@H]4C[C@H]4C)c3)cc2C(C)(C)C)c1` (single isomer, unassigned) [Example 93.1], the results for the EC50 at GPR40 [1] and at GPR40 [2] were 100 to 1000 nM and 10 to 100 nM, respectively.

As to `COc1ccc(F)c(-c2ccc(COc3cccc([C@@H](CC(=O)O)[C@@H]4C[C@H]4C)c3)cc2C2=CCCC2(C)C)c1` (single isomer, unassigned) [Example 93.2], the EC50 on GPR40 [1] is 100 to 1000 nM; at GPR40 [2] it was 10 to 100 nM.

Turning to `COc1ccc(F)c(-c2ccc(COc3cccc([C@H](CC(=O)O)C4CC4)c3)cc2[C@@H]2CCCC2(C)C)c1` (single isomer, unassigned) [Example 97.3], the EC50 on GPR40 [1] lay in the range of 100 to 1000 nM; on GPR40 [2], 10 to 100 nM.

As to `COc1ccc(F)c(-c2ccc(COc3cccc(C(CC(=O)O)C4CC4)c3F)cc2C2CCCC2(C)C)c1` (single isomer, unassigned) [Example 99.2], the concentration giving a half-maximal response (EC50) lay within 100 to 1000 nM at GPR40 [1] and 10 to 100 nM at GPR40 [2].

On to `CCC(C)(CC(=O)O)c1cccc(OCc2ccc(-c3cc(OC)ccc3F)c([C@@H]3CCCC3(C)C)c2)c1` (single isomer, unassigned) [Example 103, 3-(3-(((2-((1S)-2,2-Dimethylcyclopentyl)-2′-fluoro-5′-(methyloxy)-1,1′-biphenyl-4-yl)methyl)oxy)phenyl)-3-methylpentanoic acid or 3-(3-(((2-((1R)-2,2-dimethylcyclopentyl)-2′-fluoro-5′-(methyloxy)-1,1′-biphenyl-4-yl)methyl)oxy)phenyl)-3-methylpentanoic acid], for which the EC50 was in the range of 100 to 1000 nM at GPR40 [1] and 10 to 100 nM on GPR40 [2].

Turning to `COc1ccc(F)c(-c2ccc(COc3cccc(C(C)(CC(=O)O)C4CC4)c3)cc2[C@H]2CCCC2(C)C)c1` (single isomer, unassigned) [Example 104, 3-Cyclopropyl-3-(3-(((2-((1S)-2,2-dimethylcyclopentyl)-2′-fluoro-5′-(methyloxy)-1,1′-biphenyl-4-yl)methyl)oxy)phenyl)butanoic acid or 3-cyclopropyl-3-(3-(((2-((1R)-2,2-dimethylcyclopentyl)-2′-fluoro-5′-(methyloxy)-1,1′-biphenyl-4-yl)methyl)oxy)phenyl)butanoic acid], the results for the EC50 on GPR40 [1] and at GPR40 [2] were 100 to 1000 nM and 10 to 100 nM, respectively.

`COc1ccc(F)c(-c2ccc(COc3cccc(C4(CC(=O)O)CCCCC4)c3)cc2C2CCCC2(C)C)c1` (single isomer, unassigned) [Example 105.1, (1-{3-[2-((S)-2,2-Dimethyl-cyclopentyl)-2′-fluoro-5′-methoxy-biphenyl-4-ylmethoxy]-phenyl}-cyclohexyl)-acetic acid or (1-{3-[2-((R)-2,2-dimethyl-cyclopentyl)-2′-fluoro-5′-methoxy-biphenyl-4-ylmethoxy]-phenyl}-cyclohexyl)-acetic acid]: the concentration giving a half-maximal response (EC50) at GPR40 [1] lay in the range of 100 to 1000 nM; on GPR40 [2], 10 to 100 nM.

For `COc1ccc(F)c(-c2ccc(COc3cccc(CCC(=O)O)c3)cc2C(C)(C)C)c1` [Example 34, 3-(3-(((2-(1,1-Dimethylethyl)-2′-fluoro-5′-(methyloxy)-1,1′-biphenyl-4-yl)methyl)oxy)phenyl)propanoic acid], the 50% effective concentration (EC50) on GPR40 [1] and at GPR40 [2] was 100 to 1000 nM throughout.

As to `COc1cccc(-c2ccc(COc3cccc(CCC(=O)O)c3)cc2OC(F)(F)F)c1` [Example 37, 3-[3-(3′-Methoxy-2-trifluoromethoxy-biphenyl-4-ylmethoxy)-phenyl]-propionic acid], the EC50 on GPR40 [1] is 100 to 1000 nM; on GPR40 [2] it was greater than 1000 nM.

Turning to `COc1ccc(F)c(-c2ccc(COc3cccc(CCC(=O)O)c3)cc2OC(F)(F)F)c1` [Example 38, 3-[3-(2′-Fluoro-5′-methoxy-2-trifluoromethoxy-biphenyl-4-ylmethoxy)-phenyl]-propionic acid], the results for the EC50 at GPR40 [1] and at GPR40 [2] were 100 to 1000 nM and 1000 to 10000 nM, respectively.

Consider `COc1ccc(F)c(-c2ccc(COc3cccc(CCC(=O)O)c3)cc2C2=CCCC2)c1` [Example 39, 3-[3-(2-Cyclopent-1-enyl-2′-fluoro-5′-methoxy-biphenyl-4-ylmethoxy)-phenyl]-propionic acid], for which the EC50 on GPR40 [1] lay within 1000 to 10000 nM; on GPR40 [2] it was 100 to 1000 nM.

Turning to `COc1cccc(-c2ccc(COc3cccc(C(CC(=O)O)C4CC4)c3)cc2C2CCCC2(C)C)c1` (stereo not drawn) [Example 66.8], the 50% effective concentration (EC50) at GPR40 [1] was 10 to 100 nM; on GPR40 [2], less than 10 nM.

`COc1ccc(F)c(-c2ccc(COc3cc(CCC(=O)O)ccn3)cc2C(C)(C)C)c1` [Example 72, 3-(2-(((2-(1,1-Dimethylethyl)-2′-fluoro-5′-(methyloxy)-1,1′-biphenyl-4-yl)methyl)oxy)-4-pyridinyl)propanoic acid]: the EC50 at GPR40 [1] lay in the range of 100 to 1000 nM; at GPR40 [2], 1000 to 10000 nM.

Regarding `COc1ccc(F)c(-c2ccc(COc3cccc(C(C)(C)CC(=O)O)c3)cc2C(C)(C)C)c1` [Example 85.1, 3-[3-(2-tert-Butyl-2′-fluoro-5′-methoxy-biphenyl-4-ylmethoxy)-phenyl]-3-methyl-butyric acid], the EC50 on GPR40 [1] and at GPR40 [2] was 100 to 1000 nM in each case.

Consider `COc1ccc(F)c(-c2ccc(COc3cccc(C(C)(C)CC(=O)O)c3)cc2C2=CCCC2(C)C)c1` [Example 85.2, 3-{3-[2-(5,5-Dimethyl-cyclopent-1-enyl)-2′-fluoro-5′-methoxy-biphenyl-4-ylmethoxy]-phenyl}-3-methyl-butyric acid], for which the EC50 on GPR40 [1] fell in the range of 100 to 1000 nM; at GPR40 [2], 10 to 100 nM.

As to `COc1ccc(F)c(-c2ccc(COc3cc(CCC(=O)O)ccn3)cc2C2=CCCC2(C)C)c1` [Example 95, 3-(2-(((2-(5,5-Dimethyl-1-cyclopenten-1-yl)-2′-fluoro-5′-(methyloxy)-1,1′-biphenyl-4-yl)methyl)oxy)-4-pyridinyl)propanoic acid], the EC50 at GPR40 [1] and on GPR40 [2] was 100 to 1000 nM throughout.

The record behind these values is patent US8030354B2, “Substituted biphenyl GPR40 modulators” (Amgen Inc., priority 2007, dated 2011).
